Experimental data reported in ChEMBL document CHEMBL3600343, “Design, Synthesis, and Biological Evaluation of a Series of Anthracene-9,10-dione Dioxime β-Catenin Pathway Inhibitors” (J Med Chem, 2015).
Converted amounts (≈) assume the structure as drawn. Values belong to the molecule of their own block, whether it stands above or below them. The source made the active and inactive calls. No cut-off for these calls is given here.

Key:
HT-29 = experiment: Growth inhibition of human HT-29 cells after 72 hrs by APH assay; type: functional, cell-based; settings: HT-29, 72 h
[1] = Inhibition of Wnt/beta-catenin transcriptional activity in human HT-29 cells assessed as depletion of beta-catenin level by TCF luciferase promoter reporter assay; type: cell-based; settings: Homo sapiens, HT-29
[2] = Inhibition of Wnt/beta-catenin (unknown origin); design: species or system Homo sapiens
[3] = Cytotoxicity against human colon cancer cell aggregates grown on matrigel incubated for 72 hrs by MTS assay; type: functional, cell-based; settings: Cancer cell lines
SW480 [4] = experiment: Growth inhibition of human SW480 cells after 72 hrs by APH assay; type: functional, cell-based; settings: SW480, 72 h
STF3A [5] = experiment: Inhibition of NFkappaB in human STF3A cells at 1 uM after 24 hrs by TCF luciferase promoter reporter assay; type: cell-based
Plasma = experiment: Plasma concentration in mouse at 10 mg/kg, iv; type: ADME, organism-based; settings: in vivo
[6] = Lipophilicity, log D of the compound; type: physicochemical; settings: octanol/water
[7] = molecular target: T1, Retinoic acid receptor (Homo sapiens) (UniProt P13631+P10826+P10276); experiment: Inhibition of RAR in human STF3A cells at 1 uM after 24 hrs by TCF luciferase promoter reporter assay; type: cell-based
T1 sequence (P10276 whole entry, looked up): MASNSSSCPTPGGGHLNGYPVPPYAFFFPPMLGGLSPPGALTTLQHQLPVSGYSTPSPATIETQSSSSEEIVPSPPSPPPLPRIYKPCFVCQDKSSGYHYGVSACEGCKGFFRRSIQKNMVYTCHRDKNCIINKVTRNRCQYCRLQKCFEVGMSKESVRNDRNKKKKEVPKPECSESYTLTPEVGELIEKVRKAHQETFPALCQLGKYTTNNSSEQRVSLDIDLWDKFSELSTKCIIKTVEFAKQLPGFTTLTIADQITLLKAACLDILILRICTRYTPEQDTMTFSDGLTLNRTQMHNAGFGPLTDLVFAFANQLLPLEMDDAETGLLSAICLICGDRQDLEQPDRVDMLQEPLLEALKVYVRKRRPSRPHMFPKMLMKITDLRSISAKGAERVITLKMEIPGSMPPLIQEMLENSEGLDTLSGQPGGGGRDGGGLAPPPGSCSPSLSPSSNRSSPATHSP
T1 sequence (P10826 whole entry, looked up): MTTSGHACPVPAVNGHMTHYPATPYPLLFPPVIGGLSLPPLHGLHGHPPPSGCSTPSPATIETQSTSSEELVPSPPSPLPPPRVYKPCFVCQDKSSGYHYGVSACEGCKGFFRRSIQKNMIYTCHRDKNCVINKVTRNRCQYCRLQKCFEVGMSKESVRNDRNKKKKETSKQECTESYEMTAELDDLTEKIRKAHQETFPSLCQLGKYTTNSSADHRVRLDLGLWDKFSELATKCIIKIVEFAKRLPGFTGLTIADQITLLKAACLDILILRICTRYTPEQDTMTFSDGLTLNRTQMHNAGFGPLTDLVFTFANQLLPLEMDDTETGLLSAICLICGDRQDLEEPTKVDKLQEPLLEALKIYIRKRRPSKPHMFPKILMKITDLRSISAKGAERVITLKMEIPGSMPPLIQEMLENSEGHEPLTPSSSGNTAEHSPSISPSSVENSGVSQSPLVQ
T1 sequence (P13631 whole entry, looked up): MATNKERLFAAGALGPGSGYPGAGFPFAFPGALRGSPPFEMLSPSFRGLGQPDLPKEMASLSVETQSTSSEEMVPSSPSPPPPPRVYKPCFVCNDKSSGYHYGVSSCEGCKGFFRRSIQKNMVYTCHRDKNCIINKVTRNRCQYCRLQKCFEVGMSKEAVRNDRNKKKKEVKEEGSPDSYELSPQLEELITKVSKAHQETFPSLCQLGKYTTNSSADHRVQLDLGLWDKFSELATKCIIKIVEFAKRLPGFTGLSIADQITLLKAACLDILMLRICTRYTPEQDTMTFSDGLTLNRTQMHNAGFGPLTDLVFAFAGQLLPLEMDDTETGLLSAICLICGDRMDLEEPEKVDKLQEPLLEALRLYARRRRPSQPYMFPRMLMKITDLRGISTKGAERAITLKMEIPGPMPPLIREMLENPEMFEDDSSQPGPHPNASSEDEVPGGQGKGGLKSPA

[8] = molecular target: Signal transducer and activator of transcription 3 (Homo sapiens) (UniProt P40763); experiment: Inhibition of STAT3 in human STF cells at 1 uM after 24 hrs by TCF luciferase promoter reporter assay; type: cell-based
Chain of Signal transducer and activator of transcription 3 (Homo sapiens) (P40763 whole entry): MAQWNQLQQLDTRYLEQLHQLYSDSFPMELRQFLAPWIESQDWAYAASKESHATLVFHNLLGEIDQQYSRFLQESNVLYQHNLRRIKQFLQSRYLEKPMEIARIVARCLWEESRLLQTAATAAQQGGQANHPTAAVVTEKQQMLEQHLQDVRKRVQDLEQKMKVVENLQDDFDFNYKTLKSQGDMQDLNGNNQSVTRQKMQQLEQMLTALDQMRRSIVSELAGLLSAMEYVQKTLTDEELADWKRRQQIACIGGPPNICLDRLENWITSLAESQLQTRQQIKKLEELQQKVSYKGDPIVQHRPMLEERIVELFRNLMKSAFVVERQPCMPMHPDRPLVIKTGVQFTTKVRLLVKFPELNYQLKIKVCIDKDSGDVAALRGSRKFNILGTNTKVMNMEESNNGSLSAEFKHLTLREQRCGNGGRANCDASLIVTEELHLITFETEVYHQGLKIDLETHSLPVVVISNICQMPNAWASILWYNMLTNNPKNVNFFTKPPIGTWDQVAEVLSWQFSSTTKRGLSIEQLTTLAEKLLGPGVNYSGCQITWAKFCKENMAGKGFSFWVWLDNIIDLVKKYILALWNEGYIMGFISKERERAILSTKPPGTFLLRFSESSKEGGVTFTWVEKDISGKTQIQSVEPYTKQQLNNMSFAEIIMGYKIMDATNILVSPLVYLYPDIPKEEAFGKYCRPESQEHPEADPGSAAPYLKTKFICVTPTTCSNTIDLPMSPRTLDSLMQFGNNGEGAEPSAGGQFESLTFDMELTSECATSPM

STF [9] = experiment: Inhibition of Wnt/beta-catenin in human STF cells at 1 uM after 24 hrs by TCF luciferase promoter reporter assay; type: cell-based
[10] = molecular target: T2, Thyroid hormone receptor (Homo sapiens) (UniProt P10827+P10828); experiment: Inhibition of thyroid hormone receptor in human STF3A cells at 1 uM after 24 hrs by TCF luciferase promoter reporter assay; type: cell-based
[11] = Cytotoxicity against human HCT15 cell aggregates grown on matrigel incubated for 72 hrs by MTS assay; type: functional, cell-based; settings: HCT-15, 72 h
SW480 [12] = experiment: Antitumor activity against human SW480 cells xenografted in nu/nu mouse assessed as tumor growth inhibition at 35 mg/kg, po administered every 5 days per week for 3 weeks; type: functional, organism-based
Cytochrome P450 2C9 = Cytochrome P450 2C9 (Homo sapiens, UniProt P11712); experiment: Inhibition of CYP2C9 (unknown origin); type: ADME
[13] = Plasma concentration in mouse at 10 mg/kg, iv after 12 hrs; type: ADME, organism-based
[14] = Solubility of the compound; type: physicochemical
[15] = molecular target: T1, Retinoic acid receptor (Homo sapiens); experiment: Inhibition of RAR in human STF cells at 1 uM after 24 hrs by TCF luciferase promoter reporter assay; type: cell-based
[16] = molecular target: T3, Retinoid X receptor (Homo sapiens) (UniProt P28702+P48443+P19793); experiment: Inhibition of RXR in human STF3A cells at 1 uM after 24 hrs by TCF luciferase promoter reporter assay; type: cell-based
T3 sequence (P19793 whole entry, looked up): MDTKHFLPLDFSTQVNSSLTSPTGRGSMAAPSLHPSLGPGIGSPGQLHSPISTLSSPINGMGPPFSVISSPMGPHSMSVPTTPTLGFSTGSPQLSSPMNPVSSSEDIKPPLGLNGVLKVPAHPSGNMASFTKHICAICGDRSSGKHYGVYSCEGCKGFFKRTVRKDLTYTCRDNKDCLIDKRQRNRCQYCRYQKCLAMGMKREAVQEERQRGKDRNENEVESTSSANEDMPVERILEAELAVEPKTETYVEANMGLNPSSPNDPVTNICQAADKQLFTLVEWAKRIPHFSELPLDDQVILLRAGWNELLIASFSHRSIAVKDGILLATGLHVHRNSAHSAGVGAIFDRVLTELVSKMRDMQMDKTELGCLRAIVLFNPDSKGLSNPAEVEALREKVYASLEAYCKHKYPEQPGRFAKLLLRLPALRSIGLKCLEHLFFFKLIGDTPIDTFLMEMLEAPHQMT
T3 sequence (P28702 whole entry, looked up): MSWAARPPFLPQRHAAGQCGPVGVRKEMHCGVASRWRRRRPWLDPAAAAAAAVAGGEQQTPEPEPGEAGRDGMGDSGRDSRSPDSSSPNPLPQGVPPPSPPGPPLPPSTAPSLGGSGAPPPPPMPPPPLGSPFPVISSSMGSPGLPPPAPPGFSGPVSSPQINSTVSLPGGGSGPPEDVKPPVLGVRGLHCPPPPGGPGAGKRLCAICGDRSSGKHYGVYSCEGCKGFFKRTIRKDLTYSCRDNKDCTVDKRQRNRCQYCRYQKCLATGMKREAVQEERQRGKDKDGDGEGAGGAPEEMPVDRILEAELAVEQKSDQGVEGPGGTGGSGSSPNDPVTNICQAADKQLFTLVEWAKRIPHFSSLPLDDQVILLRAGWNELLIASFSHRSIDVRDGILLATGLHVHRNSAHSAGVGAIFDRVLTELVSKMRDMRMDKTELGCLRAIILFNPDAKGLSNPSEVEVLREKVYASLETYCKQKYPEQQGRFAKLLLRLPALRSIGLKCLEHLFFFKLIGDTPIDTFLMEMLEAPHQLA
T3 sequence (P48443 whole entry, looked up): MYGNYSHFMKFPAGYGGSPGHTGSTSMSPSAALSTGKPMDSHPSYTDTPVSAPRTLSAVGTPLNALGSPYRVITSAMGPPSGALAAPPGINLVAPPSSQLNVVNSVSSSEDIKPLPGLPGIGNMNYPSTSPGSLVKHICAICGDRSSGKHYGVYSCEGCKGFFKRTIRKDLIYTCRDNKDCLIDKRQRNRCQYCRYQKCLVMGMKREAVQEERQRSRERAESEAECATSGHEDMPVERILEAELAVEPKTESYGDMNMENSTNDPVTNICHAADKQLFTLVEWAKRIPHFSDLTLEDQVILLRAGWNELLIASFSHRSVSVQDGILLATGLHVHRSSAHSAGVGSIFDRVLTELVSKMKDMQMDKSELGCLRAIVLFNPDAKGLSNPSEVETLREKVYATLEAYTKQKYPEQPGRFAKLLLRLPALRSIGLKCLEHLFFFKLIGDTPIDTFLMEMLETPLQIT

HCT-15 [17] = experiment: Cytotoxicity against human HCT15 cell aggregates grown on matrigel incubated for 5 to 8 days by MTS assay; type: functional, cell-based
H296R = experiment: Cytotoxicity against human H296R cell aggregates grown on matrigel incubated for 5 to 8 days by MTS assay; type: functional, cell-based
Cancer cell lines [18] = experiment: Induction of cell cycle arrest in human colon cancer cells assessed as accumulation at G1 phase incubated for 72 hrs by flow cytometry; type: functional, cell-based
[19] = Terminal half life in mouse plasma at 10 mg/kg, iv; type: ADME, organism-based; settings: read-out: beta t1/2 (converted)
A549 = experiment: Growth inhibition of human A549 cells after 72 hrs by APH assay; type: functional, cell-based; settings: A549, 72 h
Mus musculus = experiment: Toxicity in human SW480 cells xenografted nu/nu mouse assessed as change in body weight at 35 mg/kg, po administered every 5 days per week for 3 weeks; type: organism-based; settings: in vivo
[20] = Cytotoxicity against human prostate cancer cells after 72 hrs by MTS assay; type: functional, cell-based; settings: Cancer cell lines
HEK293 = experiment: Induction of apoptosis in HEK293 cells transfected with Wnt3A at 10 uM by propidium iodide staining based flow cytometry; type: functional, cell-based; settings: Homo sapiens
[21] = Cytotoxicity against human H296R cell aggregates grown on matrigel incubated for 72 hrs by MTS assay; type: functional, cell-based
[22] = molecular target: T3, Retinoid X receptor (Homo sapiens); experiment: Inhibition of RXR in human STF cells at 1 uM after 24 hrs by TCF luciferase promoter reporter assay; type: cell-based
STF [23] = experiment: Inhibition of NFkappaB in human STF cells at 1 uM after 24 hrs by TCF luciferase promoter reporter assay; type: cell-based
HCT-116 = experiment: Growth inhibition of human HCT116 cells after 72 hrs by APH assay; type: functional, cell-based; settings: HCT-116, 72 h
STF [24] = experiment: Inhibition of Wnt/beta-catenin in human STF cells assessed as effect on Wnt-3a-CM-induced TopFlash activity incubated for 12 hrs with Wnt-3a-conditioned medium followed by 1 uM compound dosing; type: cell-based
[25] = Cytotoxicity against human breast cancer cell aggregates grown on matrigel incubated for 72 hrs by MTS assay; type: functional, cell-based; settings: Cancer cell lines
[26] = molecular target: Signal transducer and activator of transcription 3 (Homo sapiens) (UniProt P40763); experiment: Inhibition of STAT3 in human STF3A cells at 1 uM after 24 hrs by TCF luciferase promoter reporter assay; type: cell-based
MCF7 = experiment: Growth inhibition of human MCF7 cells after 72 hrs by APH assay; type: functional, cell-based; settings: MCF7, 72 h
HCT-15 [27] = experiment: Growth inhibition of human HCT15 cells after 72 hrs by APH assay; type: functional, cell-based; settings: HCT-15, 72 h
[28] = Growth inhibition of human H296R cells after 72 hrs by APH assay; type: functional, cell-based
Homo sapiens = organism: Homo sapiens; experiment: Activity at p-glycoprotein (unknown origin)
[29] = molecular target: Voltage-gated inwardly rectifying potassium channel KCNH2 (Homo sapiens, UniProt Q12809); experiment: Inhibition of human ERG
Chain of Voltage-gated inwardly rectifying potassium channel KCNH2 (Q12809 whole entry): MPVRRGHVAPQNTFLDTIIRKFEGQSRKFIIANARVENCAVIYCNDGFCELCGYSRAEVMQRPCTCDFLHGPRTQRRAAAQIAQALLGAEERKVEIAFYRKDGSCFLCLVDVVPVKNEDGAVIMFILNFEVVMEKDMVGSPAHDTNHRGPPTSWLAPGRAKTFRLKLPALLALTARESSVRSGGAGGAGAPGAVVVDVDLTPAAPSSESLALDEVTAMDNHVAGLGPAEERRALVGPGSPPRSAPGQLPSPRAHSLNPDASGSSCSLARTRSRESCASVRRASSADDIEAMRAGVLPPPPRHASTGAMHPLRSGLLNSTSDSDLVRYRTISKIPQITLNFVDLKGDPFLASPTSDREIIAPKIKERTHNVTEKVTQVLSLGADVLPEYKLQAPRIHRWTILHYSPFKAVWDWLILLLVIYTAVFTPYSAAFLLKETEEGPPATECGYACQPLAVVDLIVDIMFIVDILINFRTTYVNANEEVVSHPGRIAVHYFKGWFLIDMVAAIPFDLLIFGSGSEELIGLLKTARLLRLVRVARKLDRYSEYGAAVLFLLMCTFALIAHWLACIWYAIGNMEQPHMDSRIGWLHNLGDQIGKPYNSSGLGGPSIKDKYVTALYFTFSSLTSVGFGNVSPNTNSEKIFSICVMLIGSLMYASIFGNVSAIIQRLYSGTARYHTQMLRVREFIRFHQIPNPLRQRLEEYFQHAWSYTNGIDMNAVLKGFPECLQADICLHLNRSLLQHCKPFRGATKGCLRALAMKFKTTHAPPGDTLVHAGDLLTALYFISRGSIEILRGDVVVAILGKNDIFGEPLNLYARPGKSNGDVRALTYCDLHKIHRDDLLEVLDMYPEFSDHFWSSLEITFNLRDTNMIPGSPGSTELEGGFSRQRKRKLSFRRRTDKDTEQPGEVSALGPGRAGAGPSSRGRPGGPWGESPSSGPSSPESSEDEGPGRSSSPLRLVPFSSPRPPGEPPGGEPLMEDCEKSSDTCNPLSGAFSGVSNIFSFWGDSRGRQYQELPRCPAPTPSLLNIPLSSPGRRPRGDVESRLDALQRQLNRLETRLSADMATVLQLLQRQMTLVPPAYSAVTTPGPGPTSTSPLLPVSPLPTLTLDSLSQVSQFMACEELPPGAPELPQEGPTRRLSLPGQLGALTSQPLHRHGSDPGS

STF3A [30] = experiment: Inhibition of Wnt/beta-catenin in human STF3A cells at 1 uM after 24 hrs by TCF luciferase promoter reporter assay; type: cell-based
[31] = molecular target: T2, Thyroid hormone receptor (Homo sapiens); experiment: Inhibition of thyroid hormone receptor in human STF cells at 1 uM after 24 hrs by TCF luciferase promoter reporter assay; type: cell-based
[32] = Cytotoxicity against human ovarian cancer cell aggregates grown on matrigel incubated for 72 hrs by MTS assay; type: functional, cell-based; settings: Cancer cell lines
[33] = Protein binding in plasma (unknown origin); type: ADME, cell-free; settings: read-out: PPB (converted)
Cancer cell lines [34] = experiment: Induction of apoptosis in human colon cancer cells incubated for 48 to 72 hrs by annexin V-FITC and propidium iodide staining based flow cytometry; type: functional

SMILES: CC(C)(C)C1CCN(S(=O)(=O)c2ccc3c(c2)C(=NO)c2cc(S(=O)(=O)N4CCC(C(C)(C)C)CC4)ccc2C3=NO)CC1
GI50 (HT-29): 190 nM | IC50 [1]: 300 nM

SMILES: O=S(=O)(c1ccc2c(c1)C(=NO)c1cc(S(=O)(=O)N3CCCCCC3)ccc1C2=NO)N1CCCCCC1
GI50 (HT-29): 140 nM | IC50 [1]: 1800 nM

SMILES: O=S(=O)(c1ccc2c(c1)C(=NO)c1cc(S(=O)(=O)N3CCCCCCCC3)ccc1C2=NO)N1CCCCCCCC1
GI50 (HT-29): 20 nM | IC50 [1]: 160 nM

SMILES: CC1(C)CCCN(S(=O)(=O)c2ccc3c(c2)C(=NO)c2cc(S(=O)(=O)N4CCCC(C)(C)C4)ccc2C3=NO)C1
GI50 (HT-29): 80 nM

SMILES: O=S(=O)(c1ccc2c(c1)C(=NO)c1cc(S(=O)(=O)N3CCCCCCCCCCC3)ccc1C2=NO)N1CCCCCCCCCCC1
GI50 (HT-29): 470 nM | IC50 [1]: 5000 nM

SMILES: O=C1c2ccc(S(=O)(=O)N3CCCCCCC3)cc2C(=O)c2cc(S(=O)(=O)N3CCCCCCC3)ccc21
GI50 (HT-29): > 100000 nM

SMILES: O=S(=O)(c1ccc2c(c1)C(=NO)c1cc(S(=O)(=O)N3CCCCC3)ccc1C2=NO)N1CCCCC1
GI50 (HT-29): 3900 nM

SMILES: CCc1cccc2c3c([nH]c12)[C@@](CC)(CC(=O)O)OCC3 [SDX-101]
IC50 [2]: 687000 nM

Second part, led by results:

GI50 (HT-29): 30 nM | IC50 [1]: 300 nM
SMILES: O=S(=O)(c1ccc2c(c1)C(=NO)c1cc(S(=O)(=O)N3CCCCCCC3)ccc1C2=NO)N1CCCCCCC1

GI50 (HT-29): 60 nM
SMILES: CCCC1CCN(S(=O)(=O)c2ccc3c(c2)C(=NO)c2cc(S(=O)(=O)N4CCC(CCC)CC4)ccc2C3=NO)CC1

GI50 (HT-29): 90 nM | IC50 [1]: 300 nM
SMILES: CC(C)(C)C1CCN(S(=O)(=O)c2ccc3c(c2)/C(=N\O)c2ccc(S(=O)(=O)N4CCC(C(C)(C)C)CC4)cc2/C3=N/O)CC1

GI50 (HT-29): 180 nM
SMILES: O=S(=O)(c1ccc2c(c1)/C(=N\O)c1ccc(S(=O)(=O)N3CC4C5CCC(C5)C4C3)cc1/C2=N/O)N1CC2C3CCC(C3)C2C1 (centres undefined)

GI50 (HT-29): 80 nM
SMILES: O=S(=O)(NC12CC3CC(CC(C3)C1)C2)c1ccc2c(c1)/C(=N\O)c1ccc(S(=O)(=O)NC34CC5CC(CC(C5)C3)C4)cc1/C2=N/O

Ki [2]: 29000 nM
SMILES: CCCCC(O)c1[nH]c2cc(C)c(C(=O)O)cc2c1CCc1ccccc1 (centres undefined)

IC50 (SW480 [4]): 23.3 nM | concentration (Plasma): 10 µM | GI50 (HT-29): 90 nM | logD [6]: 3.3 | inhibition [7]: inactive | inhibition [8]: inactive | IC50 [2]: < 10 nM | inhibition [10]: inactive | IC50 (Cytochrome P450 2C9): 5620 nM | concentration at 12 h [13]: 1 µM | solubility [14]: 1 µg/mL (≈ 1.7 µM) | inhibition [15]: inactive | inhibition [16]: inactive | IC50 [1]: 630 nM | half-life [19]: 4 h | IC50 (A549): 51.7 nM | inhibition [22]: inactive | IC50 (HCT-116): 20.2 nM | inhibition [26]: inactive | IC50 (MCF7): 80.8 nM | IC50 (HCT-15 [27]): 30.6 nM | Activity (Homo sapiens): inactive | inhibition [31]: inactive | fraction unbound [33]: 0.002
SMILES: C[C@@H]1C[C@H](C)CN(S(=O)(=O)c2ccc3c(c2)/C(=N\O)c2cc(S(=O)(=O)N4C[C@H](C)C[C@H](C)C4)ccc2/C3=N/O)C1 [TEGAVIVINT]
IC50 [3]: 29.9 nM | inhibition (STF3A [5]): Active | inhibition (STF [9]): Active | IC50 [11]: 38.1 nM | TGI (SW480 [12]): Active | growth inhibition (GI) (HCT-15 [17]): Active | growth inhibition (GI) (H296R): Active | Activity (Cancer cell lines [18]): Dose-dependent effect | Activity (Mus musculus): Non-toxic | IC50 [20]: 20.8 nM | Activity (HEK293): Active | IC50 [21]: 34.2 nM | inhibition (STF [23]): Active | Activity (STF [24]): Active | IC50 [25]: 20 nM | IC50 [28]: 14.2 nM | inhibition (INH) [29]: Not Active | inhibition (STF3A [30]): Active | IC50 [32]: 530 nM | Activity (Cancer cell lines [34]): Dose-dependent effect
